Results taken from ChEMBL document CHEMBL1201862, “PubChem BioAssay data set” (2004).
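96-well plates; 48 h exposure; 5 concentrations. Endpoints by linear interpolation between flanking doses. Not reached: highest tested concentration assigned. Here, GI50 denotes the concentration required for 50% inhibition of growth.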 Activity calls are given as the source filed them. Cut-off read from the data, not from the text of the source: active = GI50 up to about 1.1 µM and inactive = higher.

Experiments:
Experiment in all cases: DTP human tumour cell line panel, 48 h
[1] = tested on: COLO 205
[2] = tested on: SR
[3] = tested on: EKVX
[4] = tested on: HCC 2998
[5] = tested on: U-251
[6] = tested on: HCT-15
[7] = tested on: M14
[8] = tested on: Hs-578T
[9] = tested on: HL-60
[10] = tested on: CAKI-1
[11] = tested on: IGROV-1
[12] = tested on: SF-268
[13] = tested on: MDA-MB-435
[14] = tested on: A549
[15] = tested on: UO-31
[16] = tested on: NCI-H226
[17] = tested on: A498
[18] = tested on: ACHN
[19] = tested on: SK-MEL-28
[20] = tested on: SF-295
[21] = tested on: MCF7
[22] = tested on: SW-620
[23] = tested on: MDA-MB-231
[24] = tested on: HOP-62
[25] = tested on: HCT-116
[26] = tested on: OVCAR-4
[27] = tested on: OVCAR-5
[28] = tested on: CCRF-CEM
[29] = tested on: NCI-H460
[30] = tested on: K562
[31] = tested on: UACC-62
[32] = tested on: KM12
[33] = tested on: LOX IMVI
[34] = tested on: SK-MEL-2
[35] = tested on: SN12C
[36] = tested on: OVCAR-8
[37] = tested on: HT-29
[38] = tested on: NCI/ADR-RES
[39] = tested on: DU-145
[40] = tested on: T47D
[41] = tested on: RPMI-8226
[42] = tested on: MDA-N
[43] = tested on: RXF 393
[44] = tested on: Malme-3M
[45] = tested on: 786-0
[46] = tested on: SF-539
[47] = tested on: TK-10
[48] = tested on: NCI-H522
[49] = tested on: OVCAR-3
[50] = tested on: PC-3
[51] = tested on: SNB-19
[52] = tested on: SK-MEL-5
[53] = tested on: HOP-92
[54] = tested on: SK-OV-3
[55] = tested on: BT-549
[56] = tested on: NCI-H23
[57] = tested on: MOLT-4

CCCNC1=C2C[C@@H](C)C[C@@H](OC)[C@@H](OC(=O)CCCN)[C@H](C)/C=C(\C)[C@@H](OC(N)=O)[C@H](OC)/C=C\C=C(/C)C(=O)NC(=CC1=O)C2=O
GI50 [1]: 3.52 µM (inactive)
GI50 [2]: 7.98 µM (inactive)
GI50 [3]: 17.6 µM (inactive)
GI50 [4]: 18.8 µM (inactive)
GI50 [5]: 11.4 µM (inactive)
GI50 [6]: 21.5 µM
GI50 [7]: 15.2 µM (inactive)
GI50 [8]: 25.6 µM (inactive)
GI50 [9]: 2.13 µM (inactive)
GI50 [10]: 20.3 µM (inactive)
GI50 [11]: 16.1 µM (inactive)
GI50 [12]: 15.3 µM (inactive)
GI50 [13]: 13 µM (inactive)
GI50 [14]: 15.7 µM (inactive)
GI50 [15]: 19.2 µM (inactive)
GI50 [16]: 18.5 µM (inactive)
GI50 [17]: 21.8 µM (inactive)
GI50 [18]: 19.4 µM (inactive)
GI50 [19]: 17.6 µM (inactive)
GI50 [20]: 18.7 µM (inactive)
GI50 [21]: 7.69 µM (inactive)
GI50 [22]: 10.6 µM (inactive)
GI50 [23]: 14.1 µM (inactive)
GI50 [24]: 15.6 µM (inactive)
GI50 [25]: 8.97 µM (inactive)
GI50 [26]: 18.7 µM (inactive)
GI50 [27]: 15.2 µM (inactive)
GI50 [28]: 2.52 µM (inactive)
GI50 [29]: 11.2 µM (inactive)
GI50 [30]: 4.75 µM (inactive)
GI50 [31]: 13.9 µM (inactive)
GI50 [32]: 10.6 µM (inactive)
GI50 [33]: 16 µM (inactive)
GI50 [34]: 14.9 µM (inactive)
GI50 [35]: 22.7 µM (inactive)
GI50 [36]: 20.7 µM (inactive)
GI50 [37]: 7.05 µM (inactive)
GI50 [38]: 28.8 µM (inactive)
GI50 [39]: 12.1 µM (inactive)
GI50 [40]: 12.7 µM (inactive)
GI50 [41]: 5.94 µM (inactive)
GI50 [42]: 10.3 µM (inactive)
GI50 [43]: 11.8 µM (inactive)
GI50 [44]: 12.4 µM (inactive)
GI50 [45]: 20.8 µM (inactive)
GI50 [46]: 20.3 µM (inactive)
GI50 [47]: 17.9 µM (inactive)
GI50 [48]: 5.02 µM (inactive)
GI50 [49]: 8.61 µM (inactive)
GI50 [50]: 12.6 µM (inactive)
GI50 [51]: 14.6 µM (inactive)
GI50 [52]: 9.29 µM (inactive)
GI50 [53]: 12.7 µM (inactive)
GI50 [54]: 16.4 µM (inactive)
GI50 [55]: 13.2 µM (inactive)
GI50 [56]: 11.6 µM (inactive)
GI50 [57]: 6.9 µM (inactive)
